Results from patent US6737383B1, “Herbicidal oxadiazolidines” (priority 1999, dated 2004).

Assays:
blackgrass = test: Test B pre/postemergence blackgrass; type: in vivo, Alopecurus myosuroides
Summary of the method: (§1)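 Response is a visual 0-to-10 score relative to untreated plants, where 0 means no effect and 10 means complete control, taken twelve to sixteen days after application. Treatments went onto soil at planting and onto foliage of 1- to 4-leaf plants, using a surfactant-containing non-phytotoxic solvent.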

cocklebur = test: Test B pre/postemergence cocklebur; type: in vivo, Xanthium strumarium
Summary of the method: as §1

corn = test: Test B pre/postemergence corn; type: in vivo, Zea mays
Summary of the method: as §1

crabgrass = test: Test B pre/postemergence crabgrass; type: in vivo, Digitaria sanguinalis
Summary of the method: as §1

giant foxtail = test: Test B pre/postemergence giant foxtail; type: in vivo, Setaria faberii
Summary of the method: as §1

morningglory = test: Test B pre/postemergence morningglory; type: in vivo, Ipomoea hederacea
Summary of the method: as §1

pigweed = test: Test B pre/postemergence pigweed; type: in vivo, Amaranthus retroflexus
Summary of the method: as §1

rape = test: Test B pre/postemergence rape; type: in vivo, Brassica napus
Summary of the method: as §1

soybean = test: Test B pre/postemergence soybean; type: in vivo, Glycine max
Summary of the method: as §1

sugar beet = test: Test B pre/postemergence sugar beet; type: in vivo, Beta vulgaris
Summary of the method: as §1

velvetleaf = test: Test B pre/postemergence velvetleaf; type: in vivo, Abutilon theophrasti
Summary of the method: as §1

wheat = test: Test B pre/postemergence wheat; type: in vivo, Triticum aestivum
Summary of the method: as §1

purple nutsedge = test: Test B pre/postemergence purple nutsedge; type: in vivo, Cyperus rotundus
Summary of the method: as §1

rice = test: Test B flood test rice; type: in vivo, Oryza sativa
Summary of the method: (§2)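 Each value is a visual injury score relative to controls, with 10 meaning complete control and 0 no effect. Evaluation took place twelve to sixteen days after the 2-leaf-stage plants were treated and kept in the greenhouse.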

smallflower flatsedge = test: Test B flood test smallflower flatsedge; type: in vivo, Cyperus difformis
Summary of the method: as §2

duck salad = test: Test B flood test duck salad; type: in vivo, Heteranthera limosa
Summary of the method: as §2

[1] = Preemergence, Rate 62 g/ha, scale of 0 to 10 where 0 is no effect and 10 is complete control
[2] = Preemergence, Rate 250 g/ha, scale of 0 to 10 where 0 is no effect and 10 is complete control
[3] = Preemergence, Rate 500 g/ha, scale of 0 to 10 where 0 is no effect and 10 is complete control
[4] = Rate 62 g/ha, Postemergence, scale of 0 to 10 where 0 is no effect and 10 is complete control
[5] = Rate 125 g/ha, Postemergence, scale 0 to 10
[6] = Rate 125 g/ha, Preemergence, scale of 0 to 10 where 0 is no effect and 10 is complete control
[7] = Rate 500 g/ha, Postemergence, scale 0 to 10, 0 no effect, 10 complete control
[8] = Rate 62 g/ha, headed Pre-emergence (flood test species), scale 0 to 10 (0 no effect, 10 complete control)
[9] = Rate 125 g/ha, Pre-emergence, flood test species, scale 0 to 10 where 0 is no effect and 10 is complete control
[10] = Rate 250 g/ha, Pre-emergence, flood-test species, scale 0 to 10, 0 is no effect, 10 is complete control
[11] = Rate 500 g/ha, Pre-emergence, flood test species, scale 0 to 10 (0 no effect, 10 complete control)

Q: What does the source list for CC(C)N(C(=O)n1oc(=O)n([C@H](C)c2ccccc2)c1=O)c1ccc(F)cc1F [Compound 238]?
A: Blackgrass plant response rating (blackgrass; [1]): 0; Blackgrass plant response rating (blackgrass; [2]): 0; Plant response rating, Blackgrass (blackgrass; [3]): 0; Blackgrass plant response rating (blackgrass; [4]): 0; Blackgrass plant response rating (blackgrass; [5]): 0; Blackgrass plant response rating (blackgrass; [6]): 0; Plant response rating (0 to 10; 0 is no effect, 10 is complete control), Blackgrass (blackgrass; Rate 250 g/ha, Postemergence): 0; Blackgrass plant response rating (blackgrass; [7]): 5; Cocklebur plant response rating (cocklebur; [1]): 0; Cocklebur plant response rating (cocklebur; [2]): 0; Cocklebur plant response rating (cocklebur; [4]): 0; Cocklebur plant response rating (cocklebur; [5]): 0; Cocklebur plant response rating (cocklebur; [6]): 0; Plant response rating (0 to 10; 0 is no effect, 10 is complete control), Cocklebur (cocklebur; Rate 250 g/ha, Postemergence): 0; Cocklebur plant response rating (cocklebur; [7]): 0; Corn plant response rating (corn; [1]): 0; Corn plant response rating (corn; [2]): 0; Plant response rating, Corn (corn; [3]): 0; Corn plant response rating (corn; [4]): 0; Corn plant response rating (corn; [5]): 0; Corn plant response rating (corn; [6]): 0; Plant response rating (0 to 10; 0 is no effect, 10 is complete control), Corn (corn; Rate 250 g/ha, Postemergence): 0; Corn plant response rating (corn; [7]): 0; Crabgrass plant response rating (crabgrass; [1]): 2; Crabgrass plant response rating (crabgrass; [2]): 10; Plant response rating, Crabgrass (crabgrass; [3]): 10; Crabgrass plant response rating (crabgrass; [4]): 0; Crabgrass plant response rating (crabgrass; [6]): 6; Plant response rating (0 to 10; 0 is no effect, 10 is complete control), Crabgrass (crabgrass; Rate 250 g/ha, Postemergence): 2; Crabgrass plant response rating (crabgrass; [7]): 5; Giant foxtail plant response rating (giant foxtail; [1]): 5; Giant foxtail plant response rating (giant foxtail; [2]): 10; Plant response rating, Giant foxtail (giant foxtail; [3]): 10; Giant foxtail plant response rating (giant foxtail; [4]): 0; Giant foxtail plant response rating (giant foxtail; [6]): 6; Plant response rating (0 to 10; 0 is no effect, 10 is complete control), Giant foxtail (giant foxtail; Rate 250 g/ha, Postemergence): 0; Giant foxtail plant response rating (giant foxtail; [7]): 2; Morningglory plant response rating (morningglory; [1]): 0; Morningglory plant response rating (morningglory; [2]): 0; Plant response rating, Morningglory (morningglory; [3]): 3; Morningglory plant response rating (morningglory; [4]): 2; Morningglory plant response rating (morningglory; [6]): 0; Plant response rating (0 to 10; 0 is no effect, 10 is complete control), Morningglory (morningglory; Rate 250 g/ha, Postemergence): 3; Morningglory plant response rating (morningglory; [7]): 5; Redroot pigweed plant response rating (pigweed; [1]): 0; Redroot pigweed plant response rating (pigweed; [2]): 0; Plant response rating, Redroot pigweed (pigweed; [3]): 9; Redroot pigweed plant response rating (pigweed; [4]): 0; Redroot pigweed plant response rating (pigweed; [6]): 0; Plant response rating (0 to 10; 0 is no effect, 10 is complete control), Redroot pigweed (pigweed; Rate 250 g/ha, Postemergence): 0; Redroot pigweed plant response rating (pigweed; [7]): 5; Rape plant response rating (rape; [1]): 0; Rape plant response rating (rape; [2]): 0; Plant response rating, Rape (rape; [3]): 10; Rape plant response rating (rape; [4]): 0; Rape plant response rating (rape; [6]): 0; Plant response rating (0 to 10; 0 is no effect, 10 is complete control), Rape (rape; Rate 250 g/ha, Postemergence): 4; Rape plant response rating (rape; [7]): 6; Soybean plant response rating (soybean; [1]): 0; Soybean plant response rating (soybean; [2]): 0; Plant response rating, Soybean (soybean; [3]): 0; Soybean plant response rating (soybean; [4]): 1; Soybean plant response rating (soybean; [6]): 0; Soybean plant response rating (soybean; [7]): 2; Sugarbeets plant response rating (sugar beet; [1]): 0; Sugarbeets plant response rating (sugar beet; [2]): 3; Plant response rating, Sugarbeets (sugar beet; [3]): 6; Sugarbeets plant response rating (sugar beet; [4]): 0; Sugarbeets plant response rating (sugar beet; [6]): 0; Sugarbeets plant response rating (sugar beet; [7]): 0; Velvetleaf plant response rating (velvetleaf; [1]): 0; Velvetleaf plant response rating (velvetleaf; [2]): 0; Plant response rating, Velvetleaf (velvetleaf; [3]): 3; Velvetleaf plant response rating (velvetleaf; [4]): 1; Velvetleaf plant response rating (velvetleaf; [6]): 0; Velvetleaf plant response rating (velvetleaf; [7]): 2; Wheat plant response rating (wheat; [1]): 0; Wheat plant response rating (wheat; [2]): 0; Plant response rating, Wheat (wheat; [3]): 2; Wheat plant response rating (wheat; [4]): 0; Wheat plant response rating (wheat; [6]): 0; Wheat plant response rating (wheat; [7]): 0; Nutsedge plant response rating (purple nutsedge; [1]): 0; Nutsedge plant response rating (purple nutsedge; [2]): 0; Nutsedge plant response rating (purple nutsedge; [4]): 0; Nutsedge plant response rating (purple nutsedge; [6]): 0; Plant response rating (0 to 10; 0 is no effect, 10 is complete control), Nutsedge (purple nutsedge; Rate 250 g/ha, Postemergence): 0; Nutsedge plant response rating (purple nutsedge; [7]): 0; Rice plant response rating (rice; [8]): 0; Rice plant response rating (rice; [9]): 0; Rice plant response rating (rice; [10]): 0; Rice plant response rating (rice; [11]): 0; S. Flatsedge plant response rating (smallflower flatsedge; [8]): 0; S. Flatsedge plant response rating (smallflower flatsedge; [9]): 0; S. Flatsedge plant response rating (smallflower flatsedge; [10]): 0; S. Flatsedge plant response rating (smallflower flatsedge; [11]): 0; Ducksalad plant response rating (duck salad; [8]): 0; Ducksalad plant response rating (duck salad; [9]): 0; Ducksalad plant response rating (duck salad; [10]): 0; Ducksalad plant response rating (duck salad; [11]): 0
